How the values were obtained:
human DGKζ = target: T1, human DGKζ (Homo sapiens, UniProt Q13574); assay: In vitro DGK inhibition assay, DGKζ liposome (LIPGLO) assay; type: biochemical; settings: read-out: Enzyme Inhibition DGKzeta IC50
T1 construct: TVMV protease cleavage site (C); Hexa-His (C); made in house; host or cells: Sf9 insect cells (baculovirus)
Experimental: (§1) The DGKα and DGKζ reactions were performed using either extruded liposome (DGKα and DGKζ LIPGLO assays) or detergent/lipid micelle substrate (DGKα and DGKζ assays). The reactions were carried out in 50 mM MOPS pH 7.5, 100 mM NaCl, 10 mM MgCl2, 1 μM CaCl2, and 1 mM DTT (assay buffer). The reactions using a detergent/lipid micelle substrate also contained 50 mM octyl B-D-glucopyranoside. The lipid substrate concentrations were 11 mM PS and 1 mM DAG for the detergent/lipid micelle reactions. The lipid substrate concentrations were 2 mM PS, 0.25 mM DAG, and 2.75 mM PC for the extruded liposome reactions (5 mM total lipid). The reactions were carried out in 150 μM ATP The enzyme concentrations for the DGKα and DGKζ were 5 nM
(§2) The compound inhibition studies were carried out as follows: 25 nL (ADPGLO assay) or 50 nL (LIPGLO assay) droplets of each test compound (top concentration 10 mM with 11 point, 3-fold dilution series for each compound) solubilized in DMSO were transferred to wells of a white 1536 well plate (Corning 3725). A 5 mL enzyme/lipid substrate solution at 2× final reaction concentration was prepared by combining 2.5 mL 4× enzyme solution (20 nM DGKα, or DGKζ (prepared as described below) in assay buffer) and 2.5 mL of either 4× liposome or 4× detergent/lipid micelle solution (compositions described below) and incubated at room temperature for 10 minutes. Next, 1 μL 2× enzyme/lipid substrate solution was added to wells containing the test compound and reactions were initiated with the addition of 1 μL 300 uM ATP. The reactions were allowed to proceed for 2 hr (ADPGLO assay) or 1 hr (LIPGLO assay), after which 2 μL Glo Reagent (Promega V9101) was added and incubated for 40 minutes. Next, 4 μL Kinase Detection Reagent was added and incubated for 30 minutes. Luminescence was recorded using an EnVision microplate reader. […] The compounds were evaluated at 11 concentrations to determine IC50.
(§3) The lipid composition was 5 mol % DAG (Avanti 8008110), 40 mol % PS (Avanti 840035P), and 55 mol % PC (Avanti 850457) at a total lipid concentration of 7-8 mg/mL for the liposome solution. The PC, DAG, and PS were dissolved in chloroform, combined, and dried in vacuo to a thin film. The lipids were hydrated to 20 mM in 50 mM MOPS pH 7.5, 100 mM NaCl, 5 mM MgCl2, and were freeze-thawed five times. The lipid suspension was extruded through a 100 nm polycarbonate filter 10-12 times. […] The liposome preparation was stored at 4° C. for as long as four weeks.
as §3, with “15.2” for “7-8”, “the 4×” for “the”, “eleven” for “10-12”
(§4) Human DGK-alpha-TVMV-His-pFBgate and human DGK-zeta-transcript variant-2-TVMV-His-pFBgate baculovirus samples were generated using the Bac-to-Bac baculovirus expression system (Invitrogen) according to the manufacturer's protocol. […] Baculovirus amplification was achieved using infected Sf9 cells at 1:1500 virus/cell ratios, and grown for 65 hours at 27° C. post-transfection.
(§5) The expression scale up for each protein was carried out in the Cellbag 50L WAVE-Bioreactor System 20/50 from GE Healthcare Bioscience. 12 L of 2×10^6 cells/mL Sf9 cells (Expression System, Davis, CA) grown in ESF921 insect medium (Expression System) were infected with virus stock at 1:200 virus/cell ratios, and grown for 66-68 hours at 27° C. post-infection.

human DGKα = target: T2, human DGKα (Homo sapiens, UniProt P23743); assay: In vitro DGK inhibition assay, DGKα liposome (LIPGLO) assay; type: biochemical; settings: read-out: Enzyme Inhibition DGKalpha IC50
T2 construct: TVMV protease cleavage site (C); Hexa-His (C); made in house; host or cells: Sf9 insect cells (baculovirus)
T2 sequence (P23743 with tags, fused parts or gaps): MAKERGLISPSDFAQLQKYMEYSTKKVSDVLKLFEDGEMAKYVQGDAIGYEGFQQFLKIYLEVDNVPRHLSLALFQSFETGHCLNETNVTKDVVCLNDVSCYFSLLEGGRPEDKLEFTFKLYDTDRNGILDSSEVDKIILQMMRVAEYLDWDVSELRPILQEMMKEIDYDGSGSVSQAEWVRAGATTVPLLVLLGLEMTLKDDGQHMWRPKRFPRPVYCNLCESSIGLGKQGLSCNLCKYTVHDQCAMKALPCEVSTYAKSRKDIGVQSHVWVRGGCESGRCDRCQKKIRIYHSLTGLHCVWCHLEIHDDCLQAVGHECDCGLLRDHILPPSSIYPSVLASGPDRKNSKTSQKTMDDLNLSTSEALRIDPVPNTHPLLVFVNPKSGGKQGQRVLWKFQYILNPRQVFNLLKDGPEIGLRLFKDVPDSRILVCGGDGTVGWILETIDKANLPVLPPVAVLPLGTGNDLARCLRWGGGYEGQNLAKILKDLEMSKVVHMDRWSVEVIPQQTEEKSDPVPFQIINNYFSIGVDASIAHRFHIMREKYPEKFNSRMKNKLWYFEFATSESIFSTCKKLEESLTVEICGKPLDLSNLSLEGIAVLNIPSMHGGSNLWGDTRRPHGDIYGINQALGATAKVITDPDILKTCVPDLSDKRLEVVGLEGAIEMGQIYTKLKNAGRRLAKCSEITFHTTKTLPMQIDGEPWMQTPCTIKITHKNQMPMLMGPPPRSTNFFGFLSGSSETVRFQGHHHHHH
Experimental: as §1, §2, §3
as §3, with “15.2” for “7-8”, “the 4×” for “the”, “eleven” for “10-12”
as §4, §5

T1 sequence (Q13574 with tags, fused parts or gaps isoform Q13574-4): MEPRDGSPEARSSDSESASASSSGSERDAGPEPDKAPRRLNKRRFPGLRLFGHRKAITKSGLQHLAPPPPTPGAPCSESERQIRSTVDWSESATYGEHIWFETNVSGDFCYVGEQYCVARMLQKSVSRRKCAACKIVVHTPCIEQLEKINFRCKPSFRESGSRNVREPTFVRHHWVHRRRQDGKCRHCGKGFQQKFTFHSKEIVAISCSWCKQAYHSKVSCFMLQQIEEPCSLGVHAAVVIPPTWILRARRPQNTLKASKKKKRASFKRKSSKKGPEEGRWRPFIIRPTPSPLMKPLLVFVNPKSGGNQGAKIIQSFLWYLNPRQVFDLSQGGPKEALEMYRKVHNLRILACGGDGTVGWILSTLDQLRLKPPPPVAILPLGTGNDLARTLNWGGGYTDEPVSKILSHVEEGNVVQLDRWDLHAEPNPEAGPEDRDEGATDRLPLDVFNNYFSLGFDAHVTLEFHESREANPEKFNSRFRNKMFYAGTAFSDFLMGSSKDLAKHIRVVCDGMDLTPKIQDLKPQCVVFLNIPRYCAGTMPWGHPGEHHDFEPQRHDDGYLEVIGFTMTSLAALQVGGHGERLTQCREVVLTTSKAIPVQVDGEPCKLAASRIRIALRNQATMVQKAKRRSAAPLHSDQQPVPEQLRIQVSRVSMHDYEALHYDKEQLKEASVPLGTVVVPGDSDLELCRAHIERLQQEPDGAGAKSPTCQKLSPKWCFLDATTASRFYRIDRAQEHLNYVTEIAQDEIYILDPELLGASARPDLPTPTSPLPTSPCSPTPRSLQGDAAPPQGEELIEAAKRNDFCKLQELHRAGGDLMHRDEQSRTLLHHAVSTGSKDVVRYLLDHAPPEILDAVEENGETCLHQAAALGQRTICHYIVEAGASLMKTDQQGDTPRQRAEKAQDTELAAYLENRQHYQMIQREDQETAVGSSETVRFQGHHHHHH

SMILES | IC50 (human DGKζ) | IC50 (human DGKα)
Cn1c(=O)cc(N(CC2CC2)c2cccc(C(F)(F)F)c2)c2nc(C#N)ccc21 [Example 47, 8-((cyclopropylmethyl)(3-(trifluoromethyl)phenyl)amino)-5-methyl-6-oxo-5,6-dihydro-1,5-naphthyridine-2-carbonitrile] | 5.1 µM | 0.2 µM
CN(c1ccc(F)cc1)c1cc(=O)n(C)c2ccc(C#N)nc12 [Example 23, 8-((4-fluorophenyl)(methyl)amino)-5-methyl-6-oxo-5,6-dihydro-1,5-naphthyridine-2-carbonitrile] | 4.9 µM | 0.11 µM
Cc1cccc(N(C)c2cc(=O)n(C)c3ccc(C#N)nc23)c1 [Example 22, 5-methyl-8-(methyl(m-tolyl)amino)-6-oxo-5,6-dihydro-1,5-naphthyridine-2-carbonitrile] | 4.7 µM | 1.3 µM
Cc1ccccc1N(C)c1cc(=O)n(C)c2ccc(C#N)nc12 [Example 26, 5-methyl-8-(methyl(o-tolyl)amino)-6-oxo-5,6-dihydro-1,5-naphthyridine-2-carbonitrile] | 37 µM | 0.96 µM
CN(c1ccc(F)c(F)c1)c1cc(=O)n(C)c2ccc(C#N)nc12 [Example 28, 8-((3,4-difluorophenyl)(methyl)amino)-5-methyl-6-oxo-5,6-dihydro-1,5-naphthyridine-2-carbonitrile] | 120 µM | 0.44 µM
CN(c1cccc(-c2ccc(C3CC3)cc2)c1)c1cc(=O)n(C)c2ccc(C#N)nc12 [Example 4, 8-((4′-cyclopropyl-[1,1′-biphenyl]-3-yl)(methyl)amino)-5-methyl-6-oxo-5,6-dihydro-1,5-naphthyridine-2-carbonitrile] | > 38 µM | 0.049 µM
COc1cccc(-c2cccc(N(CC3CC3)c3cc(=O)n(C)c4ccc(C#N)nc34)c2)c1 [Example 95, 8-((cyclopropylmethyl)(3′-methoxy-[1,1′-biphenyl]-3-yl)amino)-5-methyl-6-oxo-5,6-dihydro-1,5-naphthyridine-2-carbonitrile] | 6.2 µM | 2 µM
COc1cc(-c2cccc(N(CC3CC3)c3cc(=O)n(C)c4ccc(C#N)nc34)c2)ccn1 [Example 110, 8-((cyclopropylmethyl)(3-(2-methoxypyridin-4-yl)phenyl)amino)-5-methyl-6-oxo-5,6-dihydro-1,5-naphthyridine-2-carbonitrile] | 7.3 µM | 12 µM
COc1ccc(-c2cccc(N(C)c3nc(=O)n(C)c4ccc(C#N)nc34)c2)cc1 [Example 2, 4-((4′-methoxy-[1,1′-biphenyl]-3-yl)(methyl)amino)-1-methyl-2-oxo-1,2-dihydropyrido[3,2-d]pyrimidine-6-carbonitrile] | > 38 µM | > 38 µM
Cc1ccc(-c2ccc(N(CC3CC3)c3cc(=O)n(C)c4ccc(C#N)nc34)cc2)cc1 [Example 69, 8-((cyclopropylmethyl)(4′-methyl-[1,1′-biphenyl]-4-yl)amino)-5-methyl-6-oxo-5,6-dihydro-1,5-naphthyridine-2-carbonitrile] | 7.5 µM | 5.5 µM

Compounds with a lower IC50 (human DGKζ), results first:

IC50 (human DGKζ) | IC50 (human DGKα) | SMILES
2.1 µM | 6.2 µM | Cn1c(=O)cc(N(CC2CC2)c2ccc(-c3cccc(Cl)c3)cc2)c2nc(C#N)ccc21 [Example 76, 8-((3′-chloro-[1,1′-biphenyl]-4-yl)(cyclopropylmethyl)amino)-5-methyl-6-oxo-5,6-dihydro-1,5-naphthyridine-2-carbonitrile]
2.2 µM | 7.7 µM | COc1cc(N(CC2CC2)c2cc(=O)n(C)c3ccc(C#N)nc23)ccc1F [Example 55, 8-((cyclopropylmethyl)(4-fluoro-3-methoxyphenyl)amino)-5-methyl-6-oxo-5,6-dihydro-1,5-naphthyridine-2-carbonitrile]
3.2 µM | 0.65 µM | COc1ccc(N(C)c2cc(=O)n(C)c3ccc(C#N)nc23)cc1 [Example 24, 8-((4-methoxyphenyl)(methyl)amino)-5-methyl-6-oxo-5,6-dihydro-1,5-naphthyridine-2-carbonitrile]
2 µM | 3.8 µM | CN(C)C(=O)c1ccc(-c2ccc(N(CC3CC3)c3cc(=O)n(C)c4ccc(C#N)nc34)cc2)cc1 [Example 82, 4′-((6-cyano-1-methyl-2-oxo-1,2-dihydro-1,5-naphthyridin-4-yl) (cyclopropylmethyl)amino)-N,N-dimethyl-[1,1′-biphenyl]-4-carboxamide]
1.1 µM | 4.4 µM | Cn1c(=O)cc(N(CC2CC2)c2ccc(C(F)(F)F)cc2)c2nc(C#N)ccc21 [Example 42, 8-((cyclopropylmethyl)(4-(trifluoromethyl)phenyl)amino)-5-methyl-6-oxo-5,6-dihydro-1,5-naphthyridine-2-carbonitrile]
0.88 µM | 3.3 µM | Cc1ccccc1-c1ccc(N(CC2CC2)c2cc(=O)n(C)c3ccc(C#N)nc23)cc1 [Example 75, 8-((cyclopropylmethyl)(2′-methyl-[1,1′-biphenyl]-4-yl)amino)-5-methyl-6-oxo-5,6-dihydro-1,5-naphthyridine-2-carbonitrile]
4 µM | 9.5 µM | COc1cccc(-c2ccc(N(CC3CC3)c3cc(=O)n(C)c4ccc(C#N)nc34)cc2)c1 [Example 77, 8-((cyclopropylmethyl)(3′-methoxy-[1,1′-biphenyl]-4-yl)amino)-5-methyl-6-oxo-5,6-dihydro-1,5-naphthyridine-2-carbonitrile]
1.3 µM | 6.3 µM | Cn1c(=O)cc(N(CC2CC2)c2ccc(-c3ccccc3O)cc2)c2nc(C#N)ccc21 [Example 80, 8-((cyclopropylmethyl)(2′-hydroxy-[1,1′-biphenyl]-4-yl)amino)-5-methyl-6-oxo-5,6-dihydro-1,5-naphthyridine-2-carbonitrile]
3.7 µM | 44 µM | CN(C)C(=O)c1cccc(-c2cccc(N(CC3CC3)c3cc(=O)n(C)c4ccc(C#N)nc34)c2)c1 [Example 108, 3′-((6-cyano-1-methyl-2-oxo-1,2-dihydro-1,5-naphthyridin-4-yl)(cyclopropylmethyl)amino)-N,N-dimethyl-[1,1′-biphenyl]-3-carboxamide]
3 µM | 0.22 µM | Cn1c(=O)cc(N(CC2CC2)c2ccc(F)cc2)c2nc(C#N)ccc21 [Example 35, 8-((cyclopropylmethyl)(4-fluorophenyl)amino)-5-methyl-6-oxo-5,6-dihydro-1,5-naphthyridine-2-carbonitrile]
2 µM | 1.1 µM | CN(C)c1ccc(-c2ccc(N(CC3CC3)c3cc(=O)n(C)c4ccc(C#N)nc34)cc2)cc1 [Example 87, 8-((cyclopropylmethyl)(4′-(dimethylamino)-[1,1′-biphenyl]-4-yl)amino)-5-methyl-6-oxo-5,6-dihydro-1,5-naphthyridine-2-carbonitrile]
0.88 µM | 3.2 µM | CN(C)C(=O)c1cccc(-c2ccc(N(CC3CC3)c3cc(=O)n(C)c4ccc(C#N)nc34)cc2)c1 [Example 88, 4′-((6-cyano-1-methyl-2-oxo-1,2-dihydro-1,5-naphthyridin-4-yl)(cyclopropylmethyl)amino)-N,N-dimethyl-[1,1′-biphenyl]-3-carboxamide]

— patent US20260049076A1, “Tertiary Amine Substituted Bicyclic Compounds Useful as T Cell Activators” (BRISTOL-MYERS SQUIBB COMPANY, priority 2022, published 2026)
